# In ChEMBL document CHEMBL5512599, “Synthetic non-toxic anti-biofilm agents as a strategy in combating bacterial resistance” (Eur J Med Chem, 2023):
# Experiments:
# [1] = tested on: Staphylococcus aureus; assay: Antibiofilm activity against Staphylococcus aureus ATCC 25923 at 3.1 ug/ml measured after 24 hrs by crystal violet staining based analysis relative to control; format: functional; settings: dose 3.1 µg/ml
# [2] = tested on: Staphylococcus aureus; assay: Antibiofilm activity against Staphylococcus aureus ATCC 29213 at 3.1 ug/ml measured after 24 hrs by crystal violet staining based analysis relative to control; format: functional; settings: dose 3.1 µg/ml
# [3] = tested on: Staphylococcus aureus; assay: Antibiofilm activity against Staphylococcus aureus BAA 1708 at 3.1 ug/ml measured after 24 hrs by crystal violet staining based analysis relative to control; format: functional; settings: dose 3.1 µg/ml
# [4] = tested on: Staphylococcus aureus; assay: Antibacterial activity against Staphylococcus aureus assessed as bacterial growth inhibition; format: functional, organism-based
# [5] = tested on: Enterococcus faecium; assay: Antibacterial activity against Vancomycin-resistant Enterococcus faecium ATCC 51559 assessed as reduction in bacterial growth incubated for 18 hrs by spectrophotometry based analysis; format: functional, organism-based; settings: ATCC 51559, 18 h
# [6] = tested on: Staphylococcus aureus; assay: Antibiofilm activity against methicillin-resistant Staphylococcus aureus assessed as inhibition of biofilm formation incubated for 8 hrs by crystal violet staining based analysis; format: functional, organism-based
# [7] = tested on: Staphylococcus aureus; assay: Inhibition of Staphylococcus aureus Sortase A at 100 uM relative to control
# [8] = tested on: Staphylococcus aureus; assay: Antibiofilm activity against Staphylococcus aureus ATCC 25923 assessed as inhibition of biofilm formation; format: functional, organism-based
# [9] = tested on: Staphylococcus aureus; assay: Antimicrobial activity against methicillin-sensitive Staphylococcus aureus ATCC 35556 assessed as reduction in microbial growth incubated for 24 hrs by broth microdilution method; format: functional, organism-based; settings: ATCC 35556, 24 h
# [10] = tested on: Staphylococcus aureus; assay: Antimicrobial activity against methicillin-resistant Staphylococcus aureus ATCC 43866 assessed as reduction in microbial growth incubated for 24 hrs by broth microdilution method; format: functional, organism-based; settings: ATCC 43866, 24 h
# [11] = tested on: Pseudomonas aeruginosa; assay: Antimicrobial activity against Pseudomonas aeruginosa ATCC 9027 assessed as reduction in microbial growth by serial dilution method; format: functional, organism-based
# [12] = tested on: Staphylococcus epidermidis; assay: Antibacterial activity against Staphylococcus epidermidis clinical isolate 533/12 assessed as reduction in bacterial growth measured after 24 hrs by CLSI based broth micro-dilution method; format: functional
# [13] = tested on: Staphylococcus epidermidis; assay: Antibiofilm activity against Staphylococcus epidermidis clinical isolate 531/12 assessed as inhibition of biofilm formation measured after 24 hrs by confocal laser scanning microscopy analysis; format: functional, organism-based
# [14] = tested on: Staphylococcus epidermidis; assay: Antimicrobial activity against Staphylococcus epidermidis ATCC 35984 assessed as reduction in microbial growth after 24 hrs by CLSI based broth microdilution method; format: functional
# [15] = tested on: Staphylococcus epidermidis; assay: Antibiofilm activity against Staphylococcus epidermidis clinical isolate 519/12 assessed as inhibition of biofilm formation measured after 24 hrs by confocal laser scanning microscopy analysis; format: functional, organism-based
# [16] = tested on: Staphylococcus epidermidis; assay: Antibiofilm activity against Staphylococcus epidermidis clinical isolate 533/12 assessed as inhibition of biofilm formation measured after 24 hrs by confocal laser scanning microscopy analysis; format: functional, organism-based
# [17] = tested on: Staphylococcus epidermidis; assay: Antimicrobial activity against Staphylococcus epidermidis ATCC 12228 assessed as reduction in microbial growth after 24 hrs by CLSI based broth microdilution method; format: functional
# [18] = tested on: Staphylococcus epidermidis; assay: Antibacterial activity against Staphylococcus epidermidis clinical isolate 528/12 assessed as reduction in bacterial growth measured after 24 hrs by CLSI based broth micro-dilution method; format: functional
# [19] = tested on: Staphylococcus epidermidis; assay: Antibacterial activity against Staphylococcus epidermidis clinical isolate 532/12 assessed as reduction in bacterial growth measured after 24 hrs by CLSI based broth micro-dilution method; format: functional
# [20] = tested on: Staphylococcus epidermidis; assay: Antibiofilm activity against Staphylococcus epidermidis ATCC 12228 assessed as inhibition of biofilm formation measured after 24 hrs by confocal laser scanning microscopy analysis; format: functional, organism-based; settings: ATCC 12228, 24 h
# [21] = tested on: Staphylococcus epidermidis; assay: Antibacterial activity against Staphylococcus epidermidis clinical isolate 517/12 assessed as reduction in bacterial growth measured after 24 hrs by CLSI based broth micro-dilution method; format: functional
# [22] = tested on: Staphylococcus epidermidis; assay: Antibiofilm activity against Staphylococcus epidermidis clinical isolate 523/12 assessed as inhibition of biofilm formation measured after 24 hrs by confocal laser scanning microscopy analysis; format: functional, organism-based
# [23] = tested on: Staphylococcus epidermidis; assay: Antibiofilm activity against Staphylococcus epidermidis clinical isolate 517/12 assessed as inhibition of biofilm formation measured after 24 hrs by confocal laser scanning microscopy analysis; format: functional, organism-based
# [24] = tested on: Staphylococcus epidermidis; assay: Antibacterial activity against Staphylococcus epidermidis clinical isolate 531/12 assessed as reduction in bacterial growth measured after 24 hrs by CLSI based broth micro-dilution method; format: functional
# [25] = tested on: Staphylococcus epidermidis; assay: Antibiofilm activity against Staphylococcus epidermidis clinical isolate 532/12 assessed as inhibition of biofilm formation measured after 24 hrs by confocal laser scanning microscopy analysis; format: functional, organism-based
# [26] = tested on: Staphylococcus epidermidis; assay: Antibiofilm activity against Staphylococcus epidermidis clinical isolate 526/12 assessed as inhibition of biofilm formation measured after 24 hrs by confocal laser scanning microscopy analysis; format: functional, organism-based
# [27] = tested on: Staphylococcus epidermidis; assay: Antibiofilm activity against Staphylococcus epidermidis clinical isolate 528/12 assessed as inhibition of biofilm formation measured after 24 hrs by confocal laser scanning microscopy analysis; format: functional, organism-based
# [28] = tested on: Staphylococcus aureus; assay: Antibiofilm activity against Staphylococcus aureus ATCC 25923 after 24 hrs by crystal violet staining based assay; format: functional
# [29] = tested on: Staphylococcus aureus; assay: Antibacterial activity against Staphylococcus aureus ATCC 29213 assessed as reduction in bacterial growth incubated for 18 to 24 hrs by broth microdilution method; format: functional; settings: time 18-24 hrs
# [30] = Inhibition of Staphylococcus aureus sortase A by FRET assay
# [31] = tested on: Staphylococcus aureus; assay: Antibacterial activity against Staphylococcus aureus ATCC 25923 assessed as reduction in bacterial growth incubated for 18 to 24 hrs by broth microdilution method; format: functional; settings: time 18-24 hrs
# [32] = tested on: Staphylococcus epidermidis; assay: Antibacterial activity against Staphylococcus epidermidis RP62A assessed as reduction in bacterial growth incubated for 18 to 20 hrs by broth microdilution assay; format: functional; settings: time 18-20 hrs
# [33] = tested on: Staphylococcus aureus; assay: Antibacterial activity against Staphylococcus aureus ATCC 6538 assessed as reduction in bacterial growth incubated for 18 to 24 hrs by broth microdilution method; format: functional; settings: time 18-24 hrs
# [34] = tested on: Pseudomonas aeruginosa; assay: Antibiofilm activity against Pseudomonas aeruginosa assessed as reduction in biofilm formation incubated for 24 hrs by microscopic analysis; format: functional, organism-based
# [35] = tested on: Staphylococcus aureus; assay: Antibacterial activity against methicillin-sensitive Staphylococcus aureus ATCC 29213 assessed as reduction in bacterial growth incubated for 18 hrs by mueller hinton broth dilution method; format: functional, organism-based; settings: ATCC 29213, 18 h
# [36] = tested on: Staphylococcus aureus; assay: Antibiofilm activity against Methicillin-sensitive Staphylococcus aureus ATCC 29213 assessed as reduction in biofilm formation at 200 uM incubated for 24 hrs by crystal violet staining based analysis relative to control; format: functional; set-up: scale not given: the % may be the effect or the level left
# [37] = Inhibition of quorum sensing system in Pseudomonas aeruginosa PA14 assessed as inhibition of pyocyanin production
# [38] = tested on: Pseudomonas aeruginosa; assay: Antibiofilm activity against Pseudomonas aeruginosa PAO1 assessed as inhibition of biofilm formation incubated for 24 hrs by crystal violet staining based assay; format: functional, organism-based; settings: PAO1, 24 h
# [39] = tested on: Pseudomonas aeruginosa; assay: Antibacterial activity against Pseudomonas aeruginosa 27853 assessed as inhibition of bacterial growth at 3.2 microg/ml incubated for 24 hrs by absorbance based microplate reader analysis relative to control; format: functional; set-up: scale not given: the % may be the effect or the level left; settings: dose 3.2 µg/ml
# [40] = tested on: Acinetobacter baumannii; assay: Antibiofilm activity against Acinetobacter baumannii ATCC 19606 assessed as inhibition of biofilm formation at 66.5 ug/ml by crystal violet assay; format: functional; set-up: scale not given: the % may be the effect or the level left; settings: dose 66.5 µg/ml
# [41] = tested on: Pseudomonas aeruginosa; assay: Anti-motility activity against Pseudomonas aeruginosa PAO1 assessed as reduction in swarming at 100 ug/ml incubated for 16 hrs by crystal violet staining analysis; format: functional; set-up: scale not given: the % may be the effect or the level left; settings: dose 100 µg/ml
# [42] = tested on: Pseudomonas aeruginosa; assay: Anti-motility activity against Pseudomonas aeruginosa PAO1 assessed as reduction in swarming at 50 ug/ml incubated for 16 hrs by crystal violet staining analysis; format: functional; set-up: scale not given: the % may be the effect or the level left; settings: dose 50 µg/ml
smiles,measurement,setting,value
COc1ccc(CC(=O)[N-]c2c([N+]#N)c(C)nn2C)cc1,Activity,[1],38%
same,Activity,[2],45.7%
same,Activity,[3],25%
Nc1nc2cc(NC(=O)c3c(Cl)c(Cl)c(Cl)c(Cl)c3C(=O)O)ccc2[nH]1,EC50,[4],< 8 µM
same,EC50,[5],75 µM
same,IC50,[6],1.5 µM
CC(C)(C)OC(=O)NCCn1cc(-c2nc(-c3c[nH]c4ncccc34)cs2)c2ccccc21,inhibition,[7],47.8%
same,IC50,[8],12 µM
Cn1c(C(=O)N/N=C/c2ccc(Oc3c(Cl)cccc3Cl)cc2)cc(Br)c1Br,IC50,[9],0.39 µg/mL
same,IC50,[10],0.78 µg/mL
O=C1C=C(c2ccc(F)cc2)/C(=C/Sc2ccccn2)N1,IC50,[11],32 µM
Fc1ccc(NC(=S)Nc2nccs2)cc1Cl,MIC,[12],4 µg/mL
same,IC50,[13],1.13 µg/mL
same,MIC,[14],4 µg/mL
same,IC50,[15],2.5 µg/mL
same,IC50,[16],2.88 µg/mL
same,MIC,[17],4 µg/mL
same,MIC,[18],8 µg/mL
same,MIC,[19],4 µg/mL
same,IC50,[20],0.35 µg/mL
same,MIC,[21],8 µg/mL
same,IC50,[22],3.14 µg/mL
same,IC50,[23],0.66 µg/mL
same,MIC,[24],4 µg/mL
same,IC50,[25],2.21 µg/mL
same,IC50,[26],4.95 µg/mL
same,IC50,[27],1.11 µg/mL
CC(=O)/C(=N\Nc1ccccc1)C(=O)O,Activity,[28],60%
same,MIC,[29],> 270 µM
same,IC50,[30],80 µM
same,MIC,[31],> 270 µM
same,MIC,[32],> 270 µM
same,MIC,[33],> 270 µM
Nc1nc2ccccc2[nH]1,IC50,[34],47 µM
CCCCCCCCCC(=O)NCCCc1cnc(N)nc1,IC50,[35],67 µM
same,Activity,[36],80%
Cc1cccc(/C=C2/C(c3cccc(C)c3)=CC(=O)N2Cc2ccccc2)c1,IC50,[37],0.28 µM
same,IC50,[38],0.26 µM
CC[C@H]1OC(=O)[C@H](C)[C@@H](O[C@H]2C[C@@](C)(OC)[C@@H](O)[C@H](C)O2)[C@H](C)[C@@H](O[C@@H]2O[C@H](C)C[C@H](N(C)C)[C@H]2O)[C@](C)(OC)C[C@@H](C)C(=O)[C@H](C)[C@@H](O)[C@]1(C)O [CLARITHROMYCIN],Activity,[39],29.11%
O=C(/C=C/c1ccc(C(F)(F)F)cc1)c1ccccc1O,Activity,[40],56.8%
same,Activity,[41],31.74%
same,Activity,[42],21.91%
